pIC50: −log10 of the molar value.
Key:
CYP3A4 = CYP3A4 (Homo sapiens, UniProt P08684); test: CYP3A4 inhibition (according to Bapiro et al.); format: in vitro ADME
Method: The IC50 values tested according to Bapiro et al; Drug Metab. Dispos. 29, 30-35 (2001) were generally greater than 10 μM.

human NK3 receptor = biological target: T1, human NK3 receptor (Homo sapiens, UniProt P29371); test: FLIPR assay, inhibition of human NK3 receptor activation (intracellular Ca2+ increase); format: cell-based; settings: CHO cells with human NK3 receptor; agonist Pro-7-NKB; pKB converted from IC50
T1 construct: expressed in transfected cells
T1 sequence (P29371 1-465): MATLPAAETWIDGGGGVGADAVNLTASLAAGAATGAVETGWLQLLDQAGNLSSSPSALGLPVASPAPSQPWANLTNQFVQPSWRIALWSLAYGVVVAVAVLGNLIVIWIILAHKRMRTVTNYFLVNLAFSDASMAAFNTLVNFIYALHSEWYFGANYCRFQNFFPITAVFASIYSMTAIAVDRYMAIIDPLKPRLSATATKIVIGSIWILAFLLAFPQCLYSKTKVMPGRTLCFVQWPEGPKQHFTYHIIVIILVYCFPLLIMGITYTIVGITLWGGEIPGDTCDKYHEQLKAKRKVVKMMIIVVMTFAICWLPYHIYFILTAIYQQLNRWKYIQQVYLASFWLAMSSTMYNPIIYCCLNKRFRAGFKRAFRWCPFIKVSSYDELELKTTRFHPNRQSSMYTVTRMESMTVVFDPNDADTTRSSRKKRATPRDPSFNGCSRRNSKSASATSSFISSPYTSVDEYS
Method: (§1) Chinese Hamster Ovary (CHO) K1 cells (obtained from ATCC) were stably transfected with the human NK2 receptor (hNK2R cDNA in pRc/CMV, Invitrogen) or the human NK3 receptor (hNK3R in pcDNA 3.1/Hygro (+)/IRES/CD8, Invitrogen vector modified at AstraZeneca EST-Bio UK, Alderley Park). The cells were transfected with the cationic lipid reagent LIPOFECTAMINE™ (Invitrogen) and selection was performed with Geneticin (G418, Invitrogen) at 1 mg/ml for the hNK2R transfected cells and with Hygromycin (Invitrogen) at 500 μg/ml for the hNK3R transfected cells. Single cell clones were collected by aid of Fluorescence Activated Cell Sorter (FACS), tested for functionality in a FLIPR assay (see below), expanded in culture and cryopreserved for future use. CHO cells stably transfected with human NK1 receptors originates from AstraZeneca R&D, Wilmington USA. Human NK1 receptor cDNA (obtained from RNA-PCR from lung tissue) was subcloned into pRcCMV (Invitrogen). Transfection was performed by Calcium Phosphate and selection with 1 mg/ml G418. […]
(§2) The activity of a compound of the invention to inhibit NK1/NK2/NK3 receptor activation measured as NK1/NK2/NK3 receptor mediated increase in intracellular Ca^2+ was assessed by the following procedure: […]

[1] = Metabolic stability in liver microsomes (intrinsic clearance); format: in vitro ADME; settings: human, pH 7.4, 37° C., read-out: CLint (HLM)
Method: The rate of biotransformation can be measured as either metabolite(s) formation or the rate of disappearance of the parent compound. The experimental design involves incubation of low concentrations of substrate (usually 1.0 μM) with liver microsomes (usually 0.5 mg/ml) and taking out aliquots at varying time points (usually 0, 5, 10, 15, 20, 30, 40 min.). The test compound is usually dissolved in DMSO. The DMSO concentration in the incubation mixture is usually 0.1% or less since more solvent can drastically reduce the activities of some CYP450s. Incubations are done in 100 mM potassium phosphate buffer, pH 7.4 and at 37° C. Acetonitrile or methanol is used to stop the reaction. The parent compound is analysed by HPLC-MS. From the calculated half-life, t1/2, the intrinsic clearance, Clint, is estimated by taking microsomal protein concentration and liver weight into account.

human NK2 receptor = biological target: T2, human NK2 receptor (Homo sapiens, UniProt P21452); test: FLIPR assay, inhibition of human NK2 receptor activation (intracellular Ca2+ increase); format: cell-based; settings: CHO cells with human NK2 receptor; agonist NKA; pKB converted from IC50
T2 construct: expressed in transfected cells
T2 sequence (P21452 1-398): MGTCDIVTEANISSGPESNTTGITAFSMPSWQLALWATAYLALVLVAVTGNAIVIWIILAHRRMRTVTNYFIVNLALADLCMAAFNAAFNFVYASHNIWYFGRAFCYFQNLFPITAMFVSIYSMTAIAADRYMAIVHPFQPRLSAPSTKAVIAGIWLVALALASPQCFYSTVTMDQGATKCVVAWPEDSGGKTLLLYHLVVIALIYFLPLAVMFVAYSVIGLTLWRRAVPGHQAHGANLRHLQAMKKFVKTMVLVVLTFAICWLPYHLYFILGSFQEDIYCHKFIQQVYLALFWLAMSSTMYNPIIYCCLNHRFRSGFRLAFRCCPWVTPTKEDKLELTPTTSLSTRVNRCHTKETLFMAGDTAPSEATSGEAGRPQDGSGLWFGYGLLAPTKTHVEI
Method: as §1, §2

[2] = biological target: hERG-encoded potassium channel (Homo sapiens, UniProt Q12809); test: Activity against hERG (planar-array-based voltage clamp, Kiss et al.); format: cell-based
Text: The activity of compounds according to formula I against the hERG-encoded potassium channel can be determined according to Kiss L, et al. Assay Drug Dev Technol. 1 (2003), 127-35: “High throughput ion-channel pharmacology: planar-array-based voltage clamp”.

human NK1 receptor = biological target: T3, human NK1 receptor (Homo sapiens, UniProt P25103); test: FLIPR assay, inhibition of human NK1 receptor activation (intracellular Ca2+ increase); format: cell-based; settings: CHO cells with human NK1 receptor; agonist Substance P; pKB converted from IC50
T3 construct: expressed in transfected cells; from AstraZeneca R&D Wilmington
Method: as §1, §2

[3] = test system: Human Neurokinin-2 (NK2) Receptor; settings: Bioorganic & Medicinal Chemistry Letters (2003), 13, 2211-2215; cited from earlier work

T3 sequence (P25103 whole entry): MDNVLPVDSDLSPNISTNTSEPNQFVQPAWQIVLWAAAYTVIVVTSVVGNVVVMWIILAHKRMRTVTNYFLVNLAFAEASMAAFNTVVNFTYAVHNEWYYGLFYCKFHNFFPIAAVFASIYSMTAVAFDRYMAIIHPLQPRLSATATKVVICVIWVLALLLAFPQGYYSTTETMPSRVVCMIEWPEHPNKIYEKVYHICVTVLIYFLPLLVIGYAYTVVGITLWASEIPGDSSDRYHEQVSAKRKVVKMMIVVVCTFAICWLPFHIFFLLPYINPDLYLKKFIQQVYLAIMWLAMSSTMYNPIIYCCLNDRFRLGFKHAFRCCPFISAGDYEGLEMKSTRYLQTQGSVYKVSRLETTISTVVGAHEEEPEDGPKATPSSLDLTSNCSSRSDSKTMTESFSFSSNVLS
Chain of hERG-encoded potassium channel (Q12809 whole entry): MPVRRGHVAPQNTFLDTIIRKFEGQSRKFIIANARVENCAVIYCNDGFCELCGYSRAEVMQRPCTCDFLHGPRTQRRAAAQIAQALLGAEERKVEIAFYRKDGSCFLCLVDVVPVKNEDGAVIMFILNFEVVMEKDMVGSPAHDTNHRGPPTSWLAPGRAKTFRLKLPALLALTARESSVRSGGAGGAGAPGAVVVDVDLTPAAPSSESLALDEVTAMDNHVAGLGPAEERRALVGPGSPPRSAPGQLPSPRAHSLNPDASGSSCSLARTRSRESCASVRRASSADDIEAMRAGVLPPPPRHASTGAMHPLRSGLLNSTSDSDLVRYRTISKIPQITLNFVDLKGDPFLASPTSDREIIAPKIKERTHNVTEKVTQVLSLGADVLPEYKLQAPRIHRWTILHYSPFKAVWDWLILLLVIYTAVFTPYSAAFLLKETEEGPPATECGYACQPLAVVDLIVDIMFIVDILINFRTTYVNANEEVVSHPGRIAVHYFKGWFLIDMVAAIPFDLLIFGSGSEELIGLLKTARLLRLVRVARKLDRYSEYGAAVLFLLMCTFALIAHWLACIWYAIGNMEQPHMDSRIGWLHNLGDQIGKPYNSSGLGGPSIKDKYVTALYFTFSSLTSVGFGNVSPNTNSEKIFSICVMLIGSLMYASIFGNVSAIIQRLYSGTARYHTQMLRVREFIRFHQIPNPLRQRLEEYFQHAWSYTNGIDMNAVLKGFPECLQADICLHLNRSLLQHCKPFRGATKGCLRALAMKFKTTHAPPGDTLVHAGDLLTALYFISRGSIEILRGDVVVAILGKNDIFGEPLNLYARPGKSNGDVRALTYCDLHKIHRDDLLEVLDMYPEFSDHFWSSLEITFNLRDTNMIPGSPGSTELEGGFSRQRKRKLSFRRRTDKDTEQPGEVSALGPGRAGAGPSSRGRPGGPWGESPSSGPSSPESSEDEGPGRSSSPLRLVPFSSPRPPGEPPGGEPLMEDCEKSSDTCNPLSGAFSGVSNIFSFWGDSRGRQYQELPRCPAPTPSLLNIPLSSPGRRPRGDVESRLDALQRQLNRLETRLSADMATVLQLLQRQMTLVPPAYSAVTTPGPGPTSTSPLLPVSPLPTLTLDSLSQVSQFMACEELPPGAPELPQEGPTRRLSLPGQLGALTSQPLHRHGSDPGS
Chain of CYP3A4 (P08684 whole entry): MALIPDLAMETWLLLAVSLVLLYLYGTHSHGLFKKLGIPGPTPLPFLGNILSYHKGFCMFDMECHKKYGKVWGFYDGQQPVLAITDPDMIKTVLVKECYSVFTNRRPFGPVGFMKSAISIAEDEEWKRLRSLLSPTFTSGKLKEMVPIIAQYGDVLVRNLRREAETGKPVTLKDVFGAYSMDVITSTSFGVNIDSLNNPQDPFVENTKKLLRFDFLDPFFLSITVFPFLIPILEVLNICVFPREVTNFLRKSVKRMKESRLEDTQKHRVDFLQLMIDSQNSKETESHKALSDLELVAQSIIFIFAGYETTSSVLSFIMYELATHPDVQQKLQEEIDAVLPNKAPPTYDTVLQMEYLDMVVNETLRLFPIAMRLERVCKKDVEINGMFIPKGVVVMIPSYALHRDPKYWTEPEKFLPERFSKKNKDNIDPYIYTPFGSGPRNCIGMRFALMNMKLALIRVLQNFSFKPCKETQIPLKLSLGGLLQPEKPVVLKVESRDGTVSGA

Row | pIC50 (CYP3A4) | Kb (human NK3 receptor) | microsomal CLint at 1 μM [1] | Kb (human NK2 receptor) | Kb (human NK1 receptor) | Structure (SMILES) | pIC50 [2] | functional NK2 receptor antagonistic properties [3]
1 | 4.87 | 0.00398 µM | 23 µL/min/mg | 0.00251 µM | 0.02 µM | CN(C[C@@H](CCN1CC(N2CCC(C(=O)N3CCC3)CC2)C1)c1ccc(F)cc1)C(=O)c1cc(Br)cc(C(F)(F)F)c1 [Ex 1, N-[(2S)-4-{3-[4-(Azetidin-1-ylcarbonyl)piperidin-1-yl]azetidin-1-yl}-2-(4-fluorophenyl)butyl]-3-bromo-N-methyl-5-(trifluoromethyl)benzamide] | 4.96 | 
2 |  |  |  |  |  | CN(CC(CCN1CC(N2CCOCC2)C1)c1ccc(Cl)c(Cl)c1)C(=O)c1ccccc1 (stereo not shown) [N-[2-(3,4-dichlorophenyl)-4-(3-morpholin-4-ylazetidin-1-yl)butyl]-N-methylbenzamide] |  | functional NK2 receptor antagonistic properties
